Source: patent publication US8198469B2, “Crystalline forms of tigecycline and processes for preparation thereof” (Teva Pharmaceutical Industries Ltd., priority 2006, dated 2012)
Values belong to the compound of their own block, whether it stands above or below them.

What was measured:
Assay type in all cases: physicochemical
[1] = Exposure to 0% or 100% relative humidity for 7 days at room temperature, crystal form monitored by XRD
Method: X-Ray powder diffraction data were obtained by using methods known in the art, using a SCINTAG powder X-Ray diffractometer model X'TRA equipped with a solid-state detector. A Copper radiation of 1.5418 Å was used. A round aluminum sample holder with zero background was used. The scanning parameters included: range: 20 to 40° 2θ; scan mode: continuous scan; step size: 0.05°. The rate for Form XX [FIG. 16] was 3°/min using spin mode while the remaining crystalline forms were 5°/min using spin mode. All peak positions are within ±0.2 degrees two theta. […]
Form I prepared from ethyl acetate (about 80 mg) as described in U.S. Application Ser. No. 60/796,800 was exposed to either 0% or 100% relative humidity for 7 days at room temperature. After the exposure the crystal form was monitored by XRD. […]

[2] = Polymorphic transition due to heating in oven, solid analyzed by XRD
Method: (§1) X-Ray powder diffraction data were obtained by using methods known in the art, using a SCINTAG powder X-Ray diffractometer model X'TRA equipped with a solid-state detector. A Copper radiation of 1.5418 Å was used. A round aluminum sample holder with zero background was used. The scanning parameters included: range: 20 to 40° 2θ; scan mode: continuous scan; step size: 0.05°. The rate for Form XX [FIG. 16] was 3°/min using spin mode while the remaining crystalline forms were 5°/min using spin mode. All peak positions are within ±0.2 degrees two theta.
Tigecycline Form X was placed in oven at a temperature of between about 50-150° C. for about 0.5-2 hr (for example: 60 for 2 hr, 140° C. for 1 hr).
Tigecycline Form XI was placed in oven at a temperature of between about 50-80° C. for about 1-2 hr (for example: 60 for 2 hr).
Tigecycline Form XVII was placed in oven at a temperature of between about 50-70° C. for about 1-2 hr (for example: 60 for 2 hr).
Tigecycline Form XVII was placed in oven at a temperature of between about 90-110° C. for about 0.5-1 hr (for example: 100 for 0.5 hr).
Tigecycline Form XVIII was placed in oven at a temperature of between about 120-150° C. for about 0.5-1 hr (for example: 140 for 1 hr).
Tigecycline Form XXIV was placed in oven at a temperature of between about 110-140° C. for about 0.5-1 hr (for example: 120 for 0.5 hr, 140° C. for 1 hr).

[3] = Vacuum drying of the solid, form re-analyzed by XRD; conditions: for Solid form after vacuum drying: dried under vacuum, temperature and time not stated; for Solid form by XRD after drying: overnight at 40° C. under vacuum
Method: as §1
Tigecycline sample was dissolved in 20 volumes of hot iso-propanol. The solution thus obtained was allowed to cool at ambient temperature and then further cooled at 0-5° C. for about half an hour. The resulted suspension was filtered and the solid air-dried on the filter to afford Tigecycline of Form XII. The material was further dried overnight at 40° C. under vacuum without affecting the polymorphs, i.e. the vacuum dried Tigecycline was still identified as Form XII. The sizes of the Tigecycline Form XII crystals were less than 300 μm.
Tigecycline sample was dissolved in 20 volumes of n-propanol or 40 volumes of hot ethanol. The solution thus obtained was allowed to cool at ambient temperature and then further cooled at 0-5° C. for about half an hour. The resulted suspension was filtered and the solid air-dried on the filter to afford Tigecycline Form XIII. The material was further dried overnight under vacuum at 40° C. without affecting the polymorphs, i.e. the vacuum dried Tigecycline was still identified as Form XIII. The sizes of the Tigecycline Form XIII crystals were less than 300 μm.
2 grams of Tigecycline was dissolved in 440 mL of DDW and pH of the mixture was adjusted at 7.38 and 60 mL of THF were then added. The resulted solution was extracted 6 times with 60 mL portions of dichloromethane while pH is carefully controlled at 7.2-7.4. The combined organic extract was then dried over sodium sulfate and concentrated to about 10 mL to afford a suspension of Tigecycline. The solid was filtered and washed with heptane. Analysis of the material indicated Form XVII Tigecycline.
2 grams of Tigecycline was dissolved in 440 mL of DDW and pH of the mixture was adjusted at 7.33 and 60 mL of THF were then added. The resulted solution was extracted 6 times with 60 mL portions of dichloromethane while the pH is carefully controlled at 7.2-7.4. The combined organic extract was then dried over sodium sulfate, filtered and the solid was washed with 50 mL of dichloromethane into the initial filtrate. The combined filtrate was concentrated to 30-40 mL and the concentrated was stirred for about half an hour at 0-5° C. A precipitation occurred upon the cooling and the solid was collected and vacuum dried. Analysis of the material before and after the drying indicated Form XVIII of Tigecycline in both cases.
A solution of Tigecycline in dichloromethane was provided between 5 and 10 g/L, and dried over sodium sulfate. Toluene was added to the solution so that the total volume increased to about 1.15 of the original volume. The resulted solution was then partially evaporated so that the volume of the residual mixture was similar to that of the toluene added. The resulted suspension was filtered and the solid thus obtained was dried under vacuum. Analysis of the material before and after the drying indicated Form XIX of Tigecycline in both cases.
A solution of Tigecycline in dichloromethane was provided and dried over sodium sulfate. Di-n-butyl ether was added to the solution so that the total volume increased to about 1.15 of the original volume. The resulting solution was then partially evaporated so that the volume of the residual mixture was similar to that of the di-n-butyl ether added. The resulted suspension was filtered and the cake washed with di-n-butyl ether. Tigecycline thus obtained was identified as Form VIII in both wet and vacuum dried samples. […]

[4] = Pressing by a laboratory press, solid analyzed by XRD; conditions: pressure of about 1-2 tons for about 1-3 min (e.g. 2 tons for 1 min)
Method: as §1
Tigecycline Form XI was pressed by a laboratory press by pressure of about 1-2 tons for about 1-3 min (for example: 2 tons for 1 min).
Tigecycline Form XVII was pressed by a laboratory press by pressure of about 1-2 tons for about 1-3 min (for example: 2 tons for 1 min).

[5] = Strong grinding by mortar and pestle, solid analyzed by XRD; conditions: about 0.5-1 min
Method: as §1
Tigecycline Form XVII was strongly ground by mortal and pestle for about 0.5-1 min.

[6] = 120-150° C. for about 0.5-1 hr (e.g. 140° C. for 1 hr)

Structure (SMILES): CN(C)c1cc(NC(=O)CNC(C)(C)C)c(O)c2c1C[C@H]1C[C@H]3[C@H](N(C)C)C(O)=C(C(N)=O)C(=O)[C@@]3(O)C(O)=C1C2=O [Form VII, Tigecycline]
Crystal form by XRD after exposure to relative humidity ([1]; 0% RH): Form XXIII

Structure (SMILES): CN(C)c1cc(NC(=O)CNC(C)(C)C)c(O)c2c1C[C@H]1C[C@H]3[C@H](N(C)C)C(O)=C(C(N)=O)C(=O)[C@@]3(O)C(O)=C1C2=O [Form VIII, Tigecycline]
Solid form after vacuum drying [3]: Form VIII

Structure (SMILES): CN(C)c1cc(NC(=O)CNC(C)(C)C)c(O)c2c1C[C@H]1C[C@H]3[C@H](N(C)C)C(O)=C(C(N)=O)C(=O)[C@@]3(O)C(O)=C1C2=O [Form X, Tigecycline]
Solid form by XRD after heating in oven ([2]; 50-150° C. for about 0.5-2 hr (e.g. 60 for 2 hr, 140° C. for 1 hr)): amorphous form

Structure (SMILES): CN(C)c1cc(NC(=O)CNC(C)(C)C)c(O)c2c1C[C@H]1C[C@H]3[C@H](N(C)C)C(O)=C(C(N)=O)C(=O)[C@@]3(O)C(O)=C1C2=O [Form XI, Tigecycline]
Crystal form by XRD after exposure to relative humidity ([1]; 0% RH): mixture of Form XI and Form VI
Solid form by XRD after heating in oven ([2]; 50-80° C. for about 1-2 hr (e.g. 60 for 2 hr)): mixture of Form XI and Form VI
Solid form by XRD after pressing [4]: mixture of Form XI and Form VI

Structure (SMILES): CN(C)c1cc(NC(=O)CNC(C)(C)C)c(O)c2c1C[C@H]1C[C@H]3[C@H](N(C)C)C(O)=C(C(N)=O)C(=O)[C@@]3(O)C(O)=C1C2=O [Form XII, Tigecycline]
Solid form by XRD after drying [3]: Form XII

Structure (SMILES): CN(C)c1cc(NC(=O)CNC(C)(C)C)c(O)c2c1C[C@H]1C[C@H]3[C@H](N(C)C)C(O)=C(C(N)=O)C(=O)[C@@]3(O)C(O)=C1C2=O [Form XIX, Tigecycline]
Solid form after vacuum drying [3]: Form XIX

More lines, now with the values ahead:

Crystal form by XRD after exposure to relative humidity ([1]; 0% RH): New form XXV
Crystal form by XRD after exposure to relative humidity ([1]; 100% RH): Amorphous
Solid form by XRD after heating in oven [2, 6]: amorphous form
Structure (SMILES): CN(C)c1cc(NC(=O)CNC(C)(C)C)c(O)c2c1C[C@H]1C[C@H]3[C@H](N(C)C)C(O)=C(C(N)=O)C(=O)[C@@]3(O)C(O)=C1C2=O [Form I, Tigecycline]

Crystal form by XRD after exposure to relative humidity ([1]; 100% RH): Form XXII
Structure (SMILES): CN(C)c1cc(NC(=O)CNC(C)(C)C)c(O)c2c1C[C@H]1C[C@H]3[C@H](N(C)C)C(O)=C(C(N)=O)C(=O)[C@@]3(O)C(O)=C1C2=O [Form IX, Tigecycline]

Solid form by XRD after drying [3]: Form XIII
Structure (SMILES): CN(C)c1cc(NC(=O)CNC(C)(C)C)c(O)c2c1C[C@H]1C[C@H]3[C@H](N(C)C)C(O)=C(C(N)=O)C(=O)[C@@]3(O)C(O)=C1C2=O [Form XIII, Tigecycline]

Solid form after vacuum drying [3]: Form XVII
Solid form by XRD after heating in oven ([2]; 50-70° C. for about 1-2 hr (e.g. 60 for 2 hr)): mixture of Form XVII and Form VI
Solid form by XRD after heating in oven ([2]; 90-110° C. for about 0.5-1 hr (e.g. 100 for 0.5 hr)): Form VI
Solid form by XRD after strong grinding [5]: mixture of Form XVII and Form VI
Solid form by XRD after pressing [4]: mixture of Form XVII and Form VI
Structure (SMILES): CN(C)c1cc(NC(=O)CNC(C)(C)C)c(O)c2c1C[C@H]1C[C@H]3[C@H](N(C)C)C(O)=C(C(N)=O)C(=O)[C@@]3(O)C(O)=C1C2=O [Form XVII, Tigecycline]

Solid form after vacuum drying [3]: Form XVIII
Solid form by XRD after heating in oven [2, 6]: amorphous form
Structure (SMILES): CN(C)c1cc(NC(=O)CNC(C)(C)C)c(O)c2c1C[C@H]1C[C@H]3[C@H](N(C)C)C(O)=C(C(N)=O)C(=O)[C@@]3(O)C(O)=C1C2=O [Form XVIII, Tigecycline]

Solid form by XRD after heating in oven ([2]; 110-140° C. for about 0.5-1 hr (e.g. 120 for 0.5 hr, 140° C. for 1 hr)): amorphous form
Structure (SMILES): CN(C)c1cc(NC(=O)CNC(C)(C)C)c(O)c2c1C[C@H]1C[C@H]3[C@H](N(C)C)C(O)=C(C(N)=O)C(=O)[C@@]3(O)C(O)=C1C2=O [Form XXIV, Tigecycline]

Solid form by XRD after drying [3]: amorphous
Structure (SMILES): CN(C)c1cc(NC(=O)CNC(C)(C)C)c(O)c2c1C[C@H]1C[C@H]3[C@H](N(C)C)C(O)=C(C(N)=O)C(=O)[C@@]3(O)C(O)=C1C2=O [amorphous Tigecycline, Tigecycline]
